According to the supplement of paper PMC10307832:

How the values were obtained:
Assay in all cases: relative viability (nuclei count vs DMSO), 5 days (fraction); higher = more cells survive
BMX-IN-1 + Pictilisib = compound: C=CC(=O)Nc1cc(-n2c(=O)ccc3cnc4ccc(-c5ccc(NS(C)(=O)=O)cc5)cc4c32)ccc1C [BMX-IN-1] + CS(=O)(=O)N1CCN(Cc2cc3nc(-c4cccc5[nH]ncc45)nc(N4CCOCC4)c3s2)CC1 [Pictilisib] (partner 1 µM)
How it was run: (§1)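 After 5 days of treatment, lung cancer cells in 1536-well plates were fixed and stained in a single step (final 0.05% Triton X-100, 1% formaldehyde, 1 ug/ml Hoechst) and their nuclei counted on 4× images. Treatment had been applied by pin tool the day after seeding as one drug alone or as a fixed anchor-drug dose with five library-drug doses (not always all listed) in √10 steps. Relative viability is the nuclei count of treated wells divided by that of vehicle wells, and values are medians of duplicate plates.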

BMX-IN-1 + Linsitinib = compound: C=CC(=O)Nc1cc(-n2c(=O)ccc3cnc4ccc(-c5ccc(NS(C)(=O)=O)cc5)cc4c32)ccc1C [BMX-IN-1] + C[C@]1(O)C[C@@H](c2nc(-c3ccc4ccc(-c5ccccc5)nc4c3)c3c(N)nccn32)C1 [Linsitinib] (partner 1 µM)
How it was run: as §1

PAC-1 + Palbociclib = compound: C=CCc1cccc(/C=N/NC(=O)CN2CCN(Cc3ccccc3)CC2)c1O [PAC-1] + CC(=O)c1c(C)c2cnc(Nc3ccc(N4CCNCC4)cn3)nc2n(C2CCCC2)c1=O [Palbociclib] (partner 0.5 µM)
How it was run: as §1

PAC-1 + Pemetrexed = compound: C=CCc1cccc(/C=N/NC(=O)CN2CCN(Cc3ccccc3)CC2)c1O [PAC-1] + Nc1nc2[nH]cc(CCc3ccc(C(=O)N[C@@H](CCC(=O)O)C(=O)O)cc3)c2c(=O)[nH]1 [Pemetrexed] (partner 0.2 µM)
How it was run: as §1

| Cell Line | relative viability (BMX-IN-1 + Pictilisib; first compound 0.02 µM) | relative viability (BMX-IN-1 + Pictilisib; first compound 0.2 µM) | relative viability (BMX-IN-1 + Pictilisib; first compound 0.6325 µM) | relative viability (BMX-IN-1 + Pictilisib; first compound 2 µM) | relative viability (BMX-IN-1 + Linsitinib; first compound 0.02 µM) | relative viability (BMX-IN-1 + Linsitinib; first compound 0.2 µM) | relative viability (BMX-IN-1 + Linsitinib; first compound 0.6325 µM) | relative viability (BMX-IN-1 + Linsitinib; first compound 2 µM) | relative viability (PAC-1 + Palbociclib; first compound 0.02 µM) | relative viability (PAC-1 + Palbociclib; first compound 0.06325 µM) | relative viability (PAC-1 + Palbociclib; first compound 0.2 µM) | relative viability (PAC-1 + Palbociclib; first compound 2 µM) | relative viability (PAC-1 + Pemetrexed; first compound 0.02 µM) | relative viability (PAC-1 + Pemetrexed; first compound 0.06325 µM) | relative viability (PAC-1 + Pemetrexed; first compound 0.2 µM) | relative viability (PAC-1 + Pemetrexed; first compound 2 µM) |
| --- | --- | --- | --- | --- | --- | --- | --- | --- | --- | --- | --- | --- | --- | --- | --- | --- |
| NCI-H661 | 0.349 | 0.436 | 0.368 | 0.316 | 0.677 | 0.54 | 0.5 | 0.685 | 0.439 | 0.445 | 0.399 | 0.392 | 0.906 | 0.877 | 0.88 | 0.882 |
| COR-L 105 | 0.383 | 0.4 | 0.481 | 0.4 | 0.801 | 0.875 | 1.01 | 0.877 | 0.367 | 0.402 | 0.379 | 0.461 | 0.983 | 1.1 | 1.04 | 1.05 |
| BEN | 0.643 | 0.741 | 0.513 | 0.596 | 1.08 | 1.13 | 0.995 | 0.942 | 0.443 | 0.489 | 0.47 | 0.459 | 0.719 | 0.74 | 0.718 | 0.655 |
| NCI-H2023 | 0.27 | 0.241 | 0.265 | 0.334 | 0.798 | 0.695 | 0.769 | 0.726 | 0.343 | 0.353 | 0.355 | 0.33 | 0.211 | 0.215 | 0.244 | 0.229 |
| NCI-H2342 |  |  |  |  |  |  |  |  | 0.531 | 0.561 | 0.54 | 0.564 | 0.851 | 0.754 | 0.727 | 0.781 |
| NCI-H727 | 0.439 | 0.416 | 0.403 | 0.337 | 0.325 | 0.393 | 0.261 | 0.27 | 0.516 | 0.597 | 0.681 | 0.714 |  |  |  |  |
| NCI-H2170 | 0.319 | 0.312 | 0.319 | 0.307 |  |  |  |  | 0.417 | 0.39 | 0.376 | 0.343 | 0.259 | 0.252 | 0.257 | 0.278 |
| NCI-H1650 | 0.776 | 0.675 | 0.705 | 0.548 |  |  |  |  | 0.334 | 0.375 | 0.333 | 0.274 | 0.365 | 0.387 | 0.321 | 0.387 |
| NCI-H522 |  |  |  |  |  |  |  |  | 0.866 | 0.984 | 0.962 | 1.11 | 0.945 | 0.902 | 1.08 | 0.955 |
| NCI-H1563 | 0.601 | 0.629 | 0.655 | 0.684 | 1.16 | 1.33 | 1.16 | 1.18 |  |  |  |  | 0.787 | 0.746 | 0.776 | 0.949 |
| NCI-H596 | 0.382 | 0.379 | 0.405 | 0.343 | 1.12 | 1.21 | 1.02 | 0.936 |  |  |  |  | 0.435 | 0.471 | 0.477 | 0.54 |
| IA-LM | 0.337 | 0.403 | 0.427 | 0.386 | 0.701 | 0.674 | 0.47 | 0.6 |  |  |  |  |  |  |  |  |
| EBC-1 | 0.249 | 0.303 | 0.382 | 0.255 | 1.08 | 0.802 | 0.983 | 1.04 |  |  |  |  |  |  |  |  |
